The values that follow come from patent US10563197B2, “Use of a combination of Dbait molecule and PARP inhibitors to treat cancer” (INSTITUT CURIE, priority 2015, dated 2020).

Common to all, as to type: cell-based, human
The subject of one experiment is HeLa PARP1 KD. The experiment in a line: Cell survival, trypan blue counting. Conditions: 4.80 μM of AsiDNA and/or 0.1 μM of Ola; day 6 after treatment.
For a further experiment, the system named is HeLa CTL SX. The experiment in a line: Cell survival, trypan blue counting. Conditions: 4.80 μM of AsiDNA and/or 0.1 μM of Ola; day 6 after treatment.
A further experiment has as its system HeLa BRCA1 SX. Kind of experiment: Cell survival, trypan blue counting. Conditions: 4.80 μM of AsiDNA and/or 0.1 μM of Ola; day 6 after treatment.
The next experiment concerns Hep2. Kind of experiment: Cell survival, trypan blue counting. Conditions: 4.80 μM of AsiDNA and/or 0.1 μM of Ola; day 6 after treatment.
A further experiment relates to MO59K. The experiment in a line: Cell survival, trypan blue counting. Conditions: 4.80 μM of AsiDNA and/or 0.1 μM of Ola; day 6 after treatment.
The test system of the next experiment is MO59J. Kind of experiment: Cell survival, trypan blue counting. Conditions: 4.80 μM of AsiDNA and/or 0.1 μM of Ola; day 6 after treatment.
The next experiment relates to HCT116 KU70^+/−. The experiment in a line: Cell survival, trypan blue counting. Conditions: 4.80 μM of AsiDNA and/or 0.1 μM of Ola; day 6 after treatment.
The test system of another experiment is IM9. The experiment in a line: Cell survival, trypan blue counting. Conditions: 4.80 μM of AsiDNA and/or 0.1 μM of Ola; day 6 after treatment.
The test system of the next experiment is HCC38. Kind of experiment: Cell survival, trypan blue counting. Conditions: 4.80 μM of AsiDNA and/or 0.1 μM of Ola; day 6 after treatment.
Another experiment has as its system MCF10A. The experiment in a line: Cell survival, trypan blue counting. Conditions: 4.80 μM of AsiDNA and/or 0.1 μM of Ola; day 6 after treatment.
The test system of a further experiment is BRCA^−/− cell lines. Kind of experiment: Cell death and proliferation in BRCA-mutated cell lines. Conditions: 0.1 μM Ola, 4.8 μM AsiDNA; sensitive = difference in % dead cells higher than two-fold. How it is done:
Efficacy of Ola and AsiDNA was assessed by measuring cell death and proliferation in 12BC cell lines including 4BRCA-mutated cell lines (FIGS. 4A and B and FIG. 5). In addition, HeLa cells silenced for BRCA1 or BRCA2 genes were used as a control of BRCA mutation factor and 3 immortalized mammary cell lines (MCF10A, MCF12A and 184B5) as non-tumor controls. The concentration of the drugs (0.1 μM for Ola and 4.8 μM for AsiDNA) were chosen based on the 75-80% survival in the BC227 BRCA2^−/− mutant. […] Ola and AsiDNA treatments had no effect on the three control non-tumor cell lines.
Cells were grown according to the supplier's instructions.

The next experiment concerns XRCC1. Kind of experiment: XRCC1-eYFP recruitment to laser damage sites in MDAMB231 cells. Conditions: MDAMB231, 24 h of treatment with Ola (1 μM) and/or AsiDNA (16 μM). Here is the method:
FIG. 8: Olaparib inhibits XRCC1 recruitment to damage sites independently of AsiDNA. (A) Representative images of XRCC1-eYFP recruitment 40 secondes after laser damage and (B) kinetic of XRCC1-eYFP recruitment in MDAMB231 cells after 24 h of treatment with Ola (1 μM) and/or AsiDNA (16 μM). ns: not significant; ****: p<0.0001. These experiments were performed with a Leica SP5 confocal system, attached to a DMI6000 stand using a 63/1.4 objective, under a controlled environment (37° C., 5% CO2). All records were made using the appropriate sampling frequency (512_512 images, line average of four and zooming set to eight) and an argon laser line (514 nm for YFP) adapted to the fluorescent protein of interest. In the first step, two images were acquired within a period of 2-3 s at a laser energy setting sufficiently low not to induce any photodynamic damage. The 405-nm laser line (diode) was then set to maximum output for 100 ms and focused onto a single spot of constant size (176 nm) within the nucleus to cause a point of photo damage with a reproducible amount of energy. Recruitment of the protein of interest was then monitored by fluorescence using the same setting as for the pre-damage sequence. Laser damage was induced 24 h after treatment with AsiDNA (16 μM), olaparib (1 μM) or both. Images were captured at 2 s intervals for the following 52 s. […]

The next experiment has as its system 53BP1 and Rad51 foci. Kind of experiment: 53BP1 and Rad51 foci immunostaining in MDAMB231 cells. Conditions: MDAMB231, 24 h, 16 μM AsiDNA +/− 1 μM olaparib. Here is the method:
FIG. 9: Effect of the combined treatment AsiDNA and olaparib on DNA repair. Representative images of γH2AX (red) and Rad51 or 53BP1 (green) foci in MDAMB231 (A) or MCF10 (C) cells treated 24 h with Ola and/or AsiDNA. (B, D) Numbering of 53BP1 and Rad51 foci in 100 MDAMB231 cells (B) or MCF10A cells (D) 24 h after Ola and/or AsiDNA treatment. Red bars represent the mean values. (E, F) DNA damage monitored by alkaline comet assay 24 h after Ola and/or AsiDNA treatment in MDAMB231 (E) or MCF10A (F) cells. ns: not significant; *: p<0.05; ****: p<0.0001.
FIG. 10: AsiDNA inhibits irradiation-induced 53BP1 foci. Numbering of 53BP1 foci in 100 MDAMB231 cells 2 h after 10Gy irradiation, 22 h after prior treatment with AsiDNA and/or Ola. Red bars represent the mean values. *: p<0.05; **: p<0.01; ****: p<0.0001.
For immunostaining, MDAMB231 cells are seeded on cover slips (Menzel, Braunschweig, Germany) at a concentration of 5×10^5 cells and incubated at 37° C. during 1 day. Cells are then treated with 16 μM AsiDNA+/−1 μM olaparib. 24 h after treatment, cells are fixed for 20 min in 4% paraformaldehyde/Phosphate-Buffered Saline (PBS 1×), permeabilized in 0.5% Triton X-100 for 10 min, blocked with 2% bovine serum albumin/PBS 1× and incubated with primary antibody for 1 h at 4° C. […]

Method for HCC38: (§1) Cells were grown according to the supplier's instructions. Cell lines were maintained at 37° C. in a humidified atmosphere at 5% CO2.
(§2) AsiDNA or PARPi cytotoxicity was measured by relative survival and cell death quantification. Adherent cells were seeded in 24-well culture plates at appropriate densities and incubated 24 hours at 37° C. before AsiDNA and/or PARPi addition. Cells were harvested day 6aftertreatment, stained with 0.4% trypan blue (Sigma Aldrich, Saint-Louis, USA) and counted with a Burker chamber. Cell survival was calculated as ratio of living treated cells to living mock-treated cells. Cell death was calculated as the number of dead cells on the total number of counted cells. Additivity of the toxicity was calculated by the product of cell survivals to AsiDNA and cell survivals to PARPi.
Method for HCT116 KU70^+/−: as §1, §2
Method for HeLa BRCA1 SX: as §1, §2
Method for HeLa CTL SX: as §1, §2
Method for HeLa PARP1 KD: as §1, §2
Method for Hep2: as §1, §2
Method for IM9: as §1, §2
Method for MCF10A: as §1, §2
Method for MO59J: as §1, §2
Method for MO59K: as §1, §2

`O=C(c1cc(Cc2n[nH]c(=O)c3ccccc23)ccc1F)N1CCN(C(=O)C2CC2)CC1` [Olaparib, 4-[(3-[(4-cyclopropylcarbonyl)piperazin-4-yl]carbonyl)-4-fluorophenyl]methyl(2H)-phthalazin-1-one]: the “Survival (%/NT)” value was found to be 100.5 %/NT in the experiment with HeLa PARP1 KD; 105.1 %/NT with HeLa CTL SX; 71.4 %/NT with HeLa BRCA1 SX; 101 %/NT in the experiment with Hep2; 117.3 %/NT in the experiment with MO59K; 87.5 %/NT in the experiment with MO59J. Moreover, the “Survival (%/NT)” value in the experiment on HCT116 KU70^+/− amounted to 88.6 %/NT; in the experiment with IM9, 84.6 %/NT; in the experiment on HCC38, 66.7 %/NT; with MCF10A, 86.2 %/NT. For the same molecule, in the experiment with BRCA^−/− cell lines, the sensitivity to treatment entry is “sensitive to both treatments”. The XRCC1 foci recruitment result with XRCC1 is “significantly delayed”. Besides, the “γH2AX, 53BP1 and Rad51 foci in the absence of DNA damaging treatment” value in the experiment on 53BP1 and Rad51 foci is reported as “induces the accumulation of DSBs”.
